Measured values: PubChem BioAssay (NCI)
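1) Cells in 96-well plates. 2) Compound, 48 h, 5 concentrations. 3) Linear interpolation between surrounding doses. 4) Unreached endpoint = highest concentration. TGI: total growth inhibition.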

Tests used:
Assay in all cases: NCI-60 cell line screen, 48 h
ACHN renal = tested on: ACHN renal
MDA-MB-435 = tested on: MDA-MB-435
CAKI-1 renal = tested on: CAKI-1 renal
SK-OV-3 ovarian = tested on: SK-OV-3 ovarian
U251 CNS = tested on: U251 CNS
NCI-H23 lung = tested on: NCI-H23 lung
SNB-75 CNS = tested on: SNB-75 CNS
MALME-3M melanoma = tested on: MALME-3M melanoma
EKVX NSCLC = tested on: EKVX NSCLC
SF-295 CNS = tested on: SF-295 CNS
RPMI-8226 leukemia = tested on: RPMI-8226 leukemia
HOP-62 NSCLC = tested on: HOP-62 NSCLC
UACC-62 melanoma = tested on: UACC-62 melanoma
PC-3 prostate = tested on: PC-3 prostate
SK-MEL-28 melanoma = tested on: SK-MEL-28 melanoma
COLO 205 colon = tested on: COLO 205 colon

SMILES	TGI (ACHN renal) [µM]	TGI (MDA-MB-435) [µM]	TGI (CAKI-1 renal) [µM]	TGI (SK-OV-3 ovarian) [µM]	TGI (U251 CNS) [µM]	TGI (NCI-H23 lung) [µM]	TGI (SNB-75 CNS) [µM]	TGI (MALME-3M melanoma) [µM]	TGI (EKVX NSCLC) [µM]	TGI (SF-295 CNS) [µM]	TGI (RPMI-8226 leukemia) [µM]	TGI (HOP-62 NSCLC) [µM]	TGI (UACC-62 melanoma) [µM]	TGI (PC-3 prostate) [µM]	TGI (SK-MEL-28 melanoma) [µM]	TGI (COLO 205 colon) [µM]
COC(=O)[C@H](CCSC)NC(=O)N[C@H](C)c1ccccc1	> 100	> 100	> 100	> 100	> 100	> 100	> 100	> 100	> 100	> 100	> 100	> 100	> 100	> 100	> 100	> 100
CCC1(c2ccccc2)C(=O)N=C(c2ccccc2)N1CCc1ccccc1 (centres undefined)	> 100	> 100	> 100	> 100	> 100	> 100	> 100	> 100	> 100	> 100	> 100	> 100	> 100	> 100	> 100	> 100
C=CCN1C(=O)/C(=C/c2cccs2)N=C1SC/C=C/C	> 100	> 100	> 100	> 100	> 100	> 100	> 100	96.6	> 100	> 100	40.6	> 100	> 100	> 100	> 100	88.9
Cc1ccc(NC(Nc2ccc(C)cc2C)=C(/C=C(\Cl)[N+](=O)[O-])[N+](=O)[O-])c(C)c1	8.26	7.98	4.23	21	23.6	20.8	16.4	7.13	32.3	31.2	4.36	34.1	10	17.2	4.77	4.99
COc1ccc(CC2(O)C3CC4CCC2C4C3)cc1 (centres undefined)	> 100	> 100	> 100	> 100	> 100	> 100	> 100	> 100	> 100	> 100	> 100	> 100	> 100	> 100	> 100	> 100
CCOC(=O)c1c(C)nc2c1c(CN(C)C)c(O)c1[nH]c(C)c(C)nc12	69.9	99.7	> 100	92.3	68.7	89.3	60.7	53.4	92	62.2	43.8	51	30.3	54.5	76.9	40.4
O=c1[nH]cc(-c2c[nH]c3ccccc23)nc1-c1c[nH]c2ccccc12	25	14	24.6	26.2	70.8	31.5	23.7	24.1	24.6	19	43.8	27.3	23.7	51.1	31.7	23.2
O=S1(=O)OCCOS(=O)(=O)C1(F)Br	> 100	> 100	> 100	> 100	> 100	> 100	> 100	> 100	> 100	> 100	> 100	> 100	> 100	> 100	> 100	> 100
CC1(/C=C/CCSc2ccccc2)CC(=O)C2CC1C2(C)C (centres undefined)	77.8	> 87.6	> 82	> 100	> 83.7	> 100	> 100	> 69.7	> 100	> 100	18.8	> 100	> 60	> 100	> 100	70.6
